We go through 46 compounds from patent US20160090556A1, “PRODUCTS COMPRISING MALODOR REDUCTION MATERIALS” (The Procter & Gamble Company, priority 2014, published 2016).

Where two headings read alike, the source gives them in different places.

A short description of this data set: Liquid dish neat product liquid-air partition coefficient. It is filed as physicochemical. The conditions noted are these: for Comment Code: Log of liquid dish neat product liquid-air partition coefficient: code letters K, L.
The mark [1] stands for this setting: class code letter within Comment Code.

On to `CC1=CCC(CCC(C)C(C)O)C1(C)C` (stereo not drawn) [Material 1023], for which the “Log of liquid dish neat product liquid-air partition coefficient (Comment Code K/L)” value (“Log … (Comment Code K/L)” for short) is “K (Log of liquid dish neat product liquid-air partition coefficient greater than or equal to −7)”.
`O=C1CCCCCCCCCC/C=C/CCO1` [Material 289]: the “Log … (Comment Code K/L)” value under setting [1] is reported as “K (Log of liquid dish neat product liquid-air partition coefficient greater than or equal to −7)”.
In the case of `CC(C)C1=CCC(C)(O)CC1` (stereo not drawn) [Material 982], the “Log … (Comment Code K/L)” value is recorded as “K (Log of liquid dish neat product liquid-air partition coefficient greater than or equal to −7)”.
Still for that read-out and setting: the value for `CC(CO)CCCc1ccccc1` (stereo not drawn) [Material 1012] was “K (Log of liquid dish neat product liquid-air partition coefficient greater than or equal to −7)”.
Consider `C=CCCCCCCCCC(=O)OCC` [Material 381], for which the “Log … (Comment Code K/L)” value under setting [1] is reported as “K (Log of liquid dish neat product liquid-air partition coefficient greater than or equal to −7)”.
Regarding `CC=Cc1ccc(OCC)c(O)c1` [Material 1112], the “Comment Code: Log of liquid dish neat product liquid-air partition coefficient” value (shortened to “Comment Code: Log”) is “K (Log of liquid dish neat product liquid-air partition coefficient greater than or equal to −7)”.
`CC1C(C)(C)C2CCC3CC(C)(C)OC3C2C1(C)C` (stereo not drawn) [Material 680]: the “Log … (Comment Code K/L)” value is “K (Log of liquid dish neat product liquid-air partition coefficient greater than or equal to −7)” and the “Comment Code: Log” value is listed as “K (Log of liquid dish neat product liquid-air partition coefficient greater than or equal to −7)”.
For `CC1=CCC(O)(C(C)C)CC1` (stereo not drawn) [Material 800], the “Log … (Comment Code K/L)” value was “K (Log of liquid dish neat product liquid-air partition coefficient greater than or equal to −7)”.
On to `CCCCCCCCCCCCOC(C)=O` [Material 175], for which the “Log … (Comment Code K/L)” value under setting [1] is listed as “K (Log of liquid dish neat product liquid-air partition coefficient greater than or equal to −7)”.
For the compound `CC(O)CCC1C(C)CCCC1(C)C` (stereo not drawn) [Material 1052], the “Comment Code: Log” value was “K (Log of liquid dish neat product liquid-air partition coefficient greater than or equal to −7)”.
Take `CC1=CCC(/C=C/C(C)(C)C(C)O)C1(C)C` (stereo not drawn) [Material 985]: the “Log … (Comment Code K/L)” value is recorded as “K (Log of liquid dish neat product liquid-air partition coefficient greater than or equal to −7)”.
`CCOC(C)OC1CCCCCCCCCCC1` (stereo not drawn) [Material 363]: the “Log … (Comment Code K/L)” value under setting [1] was “K (Log of liquid dish neat product liquid-air partition coefficient greater than or equal to −7)”.
The same measure, in the same setting: the value for `CC=Cc1ccc(OC)c(OC)c1` [Material 108] was “K (Log of liquid dish neat product liquid-air partition coefficient greater than or equal to −7)”; that for `CCCCCCC1C(=O)CCC1C(=O)OC` (stereo not drawn) [Material 450] was “K (Log of liquid dish neat product liquid-air partition coefficient greater than or equal to −7)”.
For `CCCCCCCCCCO` [Material 868], the “Log … (Comment Code K/L)” value was “K (Log of liquid dish neat product liquid-air partition coefficient greater than or equal to −7)”.
Regarding `C=C1CCCC(C)(C)C1C=C(C)C(C)=O` (stereo not drawn) [Material 913], the “Log … (Comment Code K/L)” value is reported as “K (Log of liquid dish neat product liquid-air partition coefficient greater than or equal to −7)”.
Consider `CC=CC(=O)C1C(C)=CCCC1(C)C` (stereo not drawn) [Material 880], for which the “Comment Code: Log” value was “K (Log of liquid dish neat product liquid-air partition coefficient greater than or equal to −7)”.
Consider `C=C(C)C1CCC2(C)CCCC(=C)C2C1` (stereo not drawn) [Material 615], for which the “Log … (Comment Code K/L)” value is recorded as “K (Log of liquid dish neat product liquid-air partition coefficient greater than or equal to −7)”.
Same read-out and setting: to `CC1=CC(=O)CC(C)C12CCC(=C(C)C)C2` (stereo not drawn) [Material 610] belongs “K (Log of liquid dish neat product liquid-air partition coefficient greater than or equal to −7)”.
For `CC1=CCCC2(C)CCC3CC12OC3(C)C` (stereo not drawn) [Material 726], the “Log … (Comment Code K/L)” value is “K (Log of liquid dish neat product liquid-air partition coefficient greater than or equal to −7)” and the “Comment Code: Log” value is recorded as “K (Log of liquid dish neat product liquid-air partition coefficient greater than or equal to −7)”.
As to `Cc1ccc2c(c1)OCC(=O)CO2` [Material 17], the “Log … (Comment Code K/L)” value under setting [1] is recorded as “K (Log of liquid dish neat product liquid-air partition coefficient greater than or equal to −7)”.
As for `CCCCCC(=O)OCc1ccco1` [Material 338], the “Log … (Comment Code K/L)” value under setting [1] is “K (Log of liquid dish neat product liquid-air partition coefficient greater than or equal to −7)”.
For `COc1ccc(COC=O)cc1` [Material 665], the “Comment Code: Log” value was “K (Log of liquid dish neat product liquid-air partition coefficient greater than or equal to −7)”.
On to `CCCCCCCCCC(OCC)OCC` [Material 473], for which the “Log … (Comment Code K/L)” value under setting [1] was “K (Log of liquid dish neat product liquid-air partition coefficient greater than or equal to −7)”.
As for `C=C(OC(C)=O)c1ccccc1` [Material 931], the “Comment Code: Log” value is “K (Log of liquid dish neat product liquid-air partition coefficient greater than or equal to −7)”.
As for `CC(=O)c1cc(C(C)(C)C)cc2c1CCC2(C)C` [Material 563], the “Log … (Comment Code K/L)” value is recorded as “K (Log of liquid dish neat product liquid-air partition coefficient greater than or equal to −7)”.
For `C=CC1(C)CCC(C(C)(C)O)O1` (stereo not drawn) [Material 156], the “Log … (Comment Code K/L)” value under setting [1] is “K (Log of liquid dish neat product liquid-air partition coefficient greater than or equal to −7)”.
For `C=CCOC(=O)COc1ccccc1` [Material 743], the “Comment Code: Log” value was “K (Log of liquid dish neat product liquid-air partition coefficient greater than or equal to −7)”.
Same read-out and setting: to `CC(O)CCC1CCCCC1` (stereo not drawn) [Material 699] belongs “K (Log of liquid dish neat product liquid-air partition coefficient greater than or equal to −7)”.
Turning to `CC(C)C1CCC(C(C)O)CC1` (stereo not drawn) [Material 83], the “Log … (Comment Code K/L)” value under setting [1] is listed as “K (Log of liquid dish neat product liquid-air partition coefficient greater than or equal to −7)”.
Take `C=C1[C@H]2CC[C@H](CO)[C@@]23CC[C@H](C3)C1(C)C` [Material 183]: the “Comment Code: Log” value was “K (Log of liquid dish neat product liquid-air partition coefficient greater than or equal to −7)”. In addition, the “Log … (Comment Code K/L)” value under setting [1] is “K (Log of liquid dish neat product liquid-air partition coefficient greater than or equal to −7)”.
Turning to `C=C1CCCC(C)(C)C1C(=O)C=CC` (stereo not drawn) [Material 331], the “Log … (Comment Code K/L)” value under setting [1] is recorded as “K (Log of liquid dish neat product liquid-air partition coefficient greater than or equal to −7)”.
On to `O=COCCc1ccccc1` [Material 956], for which the “Comment Code: Log” value is recorded as “K (Log of liquid dish neat product liquid-air partition coefficient greater than or equal to −7)”.
`CC1C2CC(CC2C2CCC(O)CC2)C1(C)C` (stereo not drawn) [Material 230]: the “Comment Code: Log” value is “K (Log of liquid dish neat product liquid-air partition coefficient greater than or equal to −7)”. Also, the “Log … (Comment Code K/L)” value under setting [1] is “K (Log of liquid dish neat product liquid-air partition coefficient greater than or equal to −7)”.
Take `C[C@@H]1CC[C@H]2C(C)(C)[C@H]3C[C@@]12CC[C@@]3(C)O` [Material 569]: the “Log … (Comment Code K/L)” value is recorded as “K (Log of liquid dish neat product liquid-air partition coefficient greater than or equal to −7)” and the “Comment Code: Log” value was “K (Log of liquid dish neat product liquid-air partition coefficient greater than or equal to −7)”.
As to `CC(=O)OC(C)c1ccccc1` (stereo not drawn) [Material 1041], the “Comment Code: Log” value is listed as “K (Log of liquid dish neat product liquid-air partition coefficient greater than or equal to −7)”.
On the same count and under the same terms, to `CCc1ccccc1CC(C)(C)C=O` [Material 354] belongs “K (Log of liquid dish neat product liquid-air partition coefficient greater than or equal to −7)”.
On to `CC(=O)OCC1CC=C(CCC=C(C)C)CC1` (stereo not drawn) [Material 74], for which, under setting [1], the “Log … (Comment Code K/L)” value is “K (Log of liquid dish neat product liquid-air partition coefficient greater than or equal to −7)”.
As to `CCC=CCCC=CCO` [Material 865], the “Log … (Comment Code K/L)” value is reported as “K (Log of liquid dish neat product liquid-air partition coefficient greater than or equal to −7)”.
As for `C/C=C(\C)C(=O)OCCc1ccccc1` [Material 960], the “Comment Code: Log” value is “K (Log of liquid dish neat product liquid-air partition coefficient greater than or equal to −7)”.
As to `C=CCCCCCCCCC#N` [Material 352], the “Log … (Comment Code K/L)” value under setting [1] is reported as “K (Log of liquid dish neat product liquid-air partition coefficient greater than or equal to −7)”.
As to `CCCCCCCCCCCCCC(=O)OCC` [Material 388], the “Log … (Comment Code K/L)” value under setting [1] is recorded as “K (Log of liquid dish neat product liquid-air partition coefficient greater than or equal to −7)”.
For `CC(C)=CCCC(C)=CCCc1ccncc1` [Material 135], the “Log … (Comment Code K/L)” value under setting [1] is listed as “K (Log of liquid dish neat product liquid-air partition coefficient greater than or equal to −7)”.
Still for that read-out and setting: to `C=CCc1cc(OC)c2c(c1)OCO2` [Material 37] belongs “K (Log of liquid dish neat product liquid-air partition coefficient greater than or equal to −7)”.
As to `C=CC(C)(CCC=C(C)C)OC(C)=O` (stereo not drawn) [Material 154], the “Comment Code: Log” value was “K (Log of liquid dish neat product liquid-air partition coefficient greater than or equal to −7)”.
For the compound `C=CC(=C)CCC=C(C)CCC=C(C)C` [Material 628], the “Log … (Comment Code K/L)” value is recorded as “K (Log of liquid dish neat product liquid-air partition coefficient greater than or equal to −7)”.
